Source: patent publication US9586961B2, “Homopiperazine derivatives as protein tyrosine kinase inhibitors and pharmaceutical use thereof” (LEO PHARMA A/S, priority 2010, dated 2017)

Legend:
Format in all cases: biochemical
JAK3 = molecular target: T1, JAK3 (Homo sapiens, UniProt P52333); assay: JAK3 kinase assay (HTRF, inhibition of phosphorylation of a synthetic peptide); settings: catalytic domain, His-tag; 2 μM ATP (Km); read-out: JAK3 kinase inhibitory activity (EC50)
T1 construct: All four purified enzymes contain only the catalytic domain; His (N); purchased Carna Biosciences, Inc; host or cells: baculovirus expression system
T1 sequence (P52333 822-1111 limits assumed): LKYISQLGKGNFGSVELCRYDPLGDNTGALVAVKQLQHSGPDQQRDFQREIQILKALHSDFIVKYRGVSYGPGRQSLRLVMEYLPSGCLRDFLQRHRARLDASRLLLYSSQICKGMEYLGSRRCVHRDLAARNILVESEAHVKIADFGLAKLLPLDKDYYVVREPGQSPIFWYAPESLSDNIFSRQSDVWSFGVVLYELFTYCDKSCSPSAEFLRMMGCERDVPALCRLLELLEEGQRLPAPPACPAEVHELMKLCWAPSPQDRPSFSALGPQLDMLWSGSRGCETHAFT
Experimental: (§1) JAK1, JAK2, JAK3 and TYK2 Kinase Assays:
(§2) Human baculovirus-expressed JAK1, 2, 3 and TYK2 were purchased from Carna Biosciences, Inc. All four purified enzymes contain only the catalytic domain. JAK1 (aa 850-1154) and TYK2 (aa 871-1187) are expressed with an N-terminally fused GST-tag, and JAK2 and JAK3 with an N-terminally fused His-tag. Inhibition of phosphorylation of a synthetic peptide was measured in an HTRF-based assay using the TK substrate-Biotin from the CisbioHTRFKinEASE TK kit. First, 2 μl of TK solution (TK substrate-biotin in kinase buffer [1× enzymatic buffer from HTRFKinEASE TK kit, 1 mM DTT]) is added to a plate containing 1 μl prediluted compound (final assay concentration DMSO: 0.75%). Then, 5 μl kinase-ATP mix (prepared in kinase buffer) is added to the wells and the plates are incubated at RT for 20-30 min. For all four kinases a concentration of ATP that corresponded to the Km for ATP was used. The final concentrations of buffers, substrate, kinase and ATP were: JAK1: 50 mMHepes buffer pH 7.0, 0.01% BSA, 10 mM MgCl2, 1 mM DTT, 7 μM ATP, 50 nMSEB, 1 μM TK Substrate-Biotin and 5 ng JAK1; JAK2: 50 mM Hepes buffer pH 7.0, 0.01% BSA, 5 mM MgCl2, 1 mM DTT, 4 μM ATP, 1 μM TK Substrate-Biotin and 0.1 ng JAK2; JAK3: 50 mMHepes buffer pH 7.0, 0.01% BSA, 5 mM MgCl2, 1 mM DTT, 2 μM ATP, 1 μM TK Substrate-Biotin and 0.3 ng JAK3; TYK2: 50 mMHepes buffer pH 7.0, 0.01% BSA, 5 mM MgCl2, 1 mM DTT, 13 μM ATP, 50 nMSEB, 1 μM TK Substrate-Biotin and 0.8 ng TYK2. Thereafter, the kinase reaction is stopped by adding 4 μl detection mix (final concentrations: 50 mM Hepes buffer pH 7.0, 0.01% BSA, 0.8 M KF, 20 mM EDTA, 42 nM Streptavidin-XL665 and 1:400 STKAbCryptate) and the plates are incubated overnight in the dark. The HTRF signal is read using an Envision plate reader.

JAK2 = molecular target: T2, JAK2 (Homo sapiens, UniProt O60674); assay: JAK2 kinase assay (HTRF, inhibition of phosphorylation of a synthetic peptide); settings: catalytic domain, His-tag; 4 μM ATP (Km); read-out: JAK2 kinase inhibitory activity (EC50)
T2 construct: All four purified enzymes contain only the catalytic domain; His (N); purchased Carna Biosciences, Inc; host or cells: baculovirus expression system
T2 sequence (O60674 849-1124 limits assumed): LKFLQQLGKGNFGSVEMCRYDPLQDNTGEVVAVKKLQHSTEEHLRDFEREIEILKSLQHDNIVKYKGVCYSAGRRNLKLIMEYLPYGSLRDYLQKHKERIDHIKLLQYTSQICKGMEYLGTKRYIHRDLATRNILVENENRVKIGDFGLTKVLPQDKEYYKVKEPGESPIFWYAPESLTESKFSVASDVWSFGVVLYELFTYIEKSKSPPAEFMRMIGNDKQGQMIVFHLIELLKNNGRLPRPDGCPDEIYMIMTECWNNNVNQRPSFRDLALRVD
Experimental: as §1, §2

JAK1 = molecular target: T3, JAK1 (Homo sapiens, UniProt P23458); assay: JAK1 kinase assay (HTRF, inhibition of phosphorylation of a synthetic peptide); settings: catalytic domain aa 850-1154, GST-tag; 7 μM ATP (Km); read-out: JAK1 kinase inhibitory activity (EC50)
T3 construct: JAK1 (aa 850-1154) and TYK2 (aa 871-1187) are expressed with an N-terminally fused GST-tag; GST (N); purchased Carna Biosciences, Inc; host or cells: baculovirus expression system
T3 sequence (P23458 850-1154): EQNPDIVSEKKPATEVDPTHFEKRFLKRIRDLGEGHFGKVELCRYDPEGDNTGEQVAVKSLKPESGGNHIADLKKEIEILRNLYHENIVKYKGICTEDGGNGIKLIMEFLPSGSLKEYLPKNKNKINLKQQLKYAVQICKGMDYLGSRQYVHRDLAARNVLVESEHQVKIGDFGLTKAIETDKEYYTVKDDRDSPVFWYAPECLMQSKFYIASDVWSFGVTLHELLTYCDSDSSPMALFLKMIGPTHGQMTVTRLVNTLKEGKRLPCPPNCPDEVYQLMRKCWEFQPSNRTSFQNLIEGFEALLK
Experimental: as §1, §2

Row | SMILES | EC50 (JAK3) | EC50 (JAK2) | EC50 (JAK1)
1 | O=C(c1c[nH]cn1)N1CCN(c2ncnc3[nH]ccc23)CC2(CC2)C1 [Example 133, 1H-imidazol-4-yl-[5-(7H-pyrrolo[2,3-d]pyrimidin-4-yl)-5,8-diazaspiro[2.6]nonan-8-yl]methanone] | 100 to 1000 nM | 100 to 1000 nM | 100 to 1000 nM
2 | O=C(c1ccc(O)nc1)N1CCCN(c2ncnc3[nH]ccc23)CC12CC2 [Example 132, (6-hydroxy-3-pyridyl)-[5-(7H-pyrrolo[2,3-d]pyrimidin-4-yl)-5,9-diazaspiro[2.6]nonan-9-yl]methanone] | 100 to 1000 nM | 100 to 1000 nM | 100 to 1000 nM
3 | Cc1ccccc1C(=O)N1CCCN(c2ncnc3[nH]ccc23)CC12CC2 [Example 110, o-tolyl-[5-(7H-pyrrolo[2,3-d]pyrimidin-4-yl)-5,9-diazaspiro[2.6]nonan-9-yl]methanone] | > 1000 nM | 100 to 1000 nM | 100 to 1000 nM
4 | O=C(c1cncnc1)N1CCCN(c2ncnc3[nH]ccc23)CC12CC2 [Example 161, pyrimidin-5-yl-[5-(7H-pyrrolo[2,3-d]pyrimidin-4-yl)-5,9-diazaspiro[2.6]nonan-9-yl]methanone] | > 1000 nM | 100 to 1000 nM | 100 to 1000 nM
5 | O=C(Cc1ccc(Cl)cc1)N1CCCN(c2ncnc3[nH]ccc23)CC12CC2 [Example 126, 2-(4-chlorophenyl)-1-[5-(7H-pyrrolo[2,3-d]pyrimidin-4-yl)-5,9-diazaspiro[2.6]nonan-9-yl]ethanone] | 100 to 1000 nM | < 100 nM | 100 to 1000 nM
6 | O=C(c1cccnc1)N1CCCN(c2ncnc3[nH]ccc23)CC12CC2 [Example 128, 3-pyridyl-[5-(7H-pyrrolo[2,3-d]pyrimidin-4-yl)-5,9-diazaspiro[2.6]nonan-9-yl]methanone] | > 1000 nM | 100 to 1000 nM | 100 to 1000 nM
7 | CN1CC(=O)N(CC(=O)N2CCN(c3ncnc4[nH]ccc34)CC3(CC3)C2)C1=O [Example 80, 1-methyl-3-[2-oxo-2-[5-(7H-pyrrolo[2,3-d]pyrimidin-4-yl)-5,8-diazaspiro[2.6]nonan-8-yl]ethyl]imidazolidine-2,4-dione] | 100 to 1000 nM | < 100 nM | 100 to 1000 nM
8 | Cc1cc(C(=O)N2CCN(c3ncnc4[nH]ccc34)CC3(CC3)C2)n(C)n1 [Example 143, (2,5-dimethylpyrazol-3-yl)-[5-(7H-pyrrolo[2,3-d]pyrimidin-4-yl)-5,8-diazaspiro[2.6]nonan-8-yl]methanone] | > 1000 nM | > 1000 nM | > 1000 nM
9 | Cc1cc(C(=O)N2CCN(c3ncnc4[nH]ccc34)CC3(CC3)C2)[nH]n1 [Example 148, (5-methyl-1H-pyrazol-3-yl)-[5-(7H-pyrrolo[2,3-d]pyrimidin-4-yl)-5,8-diazaspiro[2.6]nonan-8-yl]methanone] | > 1000 nM | 100 to 1000 nM | 100 to 1000 nM
10 | N#Cc1ccc(/C=C/C(=O)N2CCN(c3ncnc4[nH]ccc34)CC3(CC3)C2)cc1 [Example 117, 4-[(E)-3-oxo-3-[5-(7H-pyrrolo[2,3-d]pyrimidin-4-yl)-5,8-diazaspiro[2.6]nonan-8-yl]prop-1-enyl]benzonitrile] | – | 100 to 1000 nM | 100 to 1000 nM
11 | Cc1nnc(C(=O)N2CCCN(c3ncnc4[nH]ccc34)CC23CC3)o1 [Example 154, (5-methyl-1,3,4-oxadiazol-2-yl)-[5-(7H-pyrrolo[2,3-d]pyrimidin-4-yl)-5,9-diazaspiro[2.6]nonan-9-yl]methanone] | 100 to 1000 nM | < 100 nM | 100 to 1000 nM

Continued, values first:

Row | EC50 (JAK3) | EC50 (JAK2) | EC50 (JAK1) | SMILES
12 | > 1000 nM | 100 to 1000 nM | > 1000 nM | O=C(c1ccccn1)N1CCN(c2ncnc3[nH]ccc23)CC2(CC2)C1 [Example 188, 2-pyridyl-[5-(7H-pyrrolo[2,3-d]pyrimidin-4-yl)-5,8-diazaspiro[2.6]nonan-8-yl]methanone]
13 | > 1000 nM | 100 to 1000 nM | 100 to 1000 nM | Cc1sncc1C(=O)N1CCN(c2ncnc3[nH]ccc23)CC2(CC2)C1 [Example 229, (5-methylisothiazol-4-yl)-[5-(7H-pyrrolo[2,3-d]pyrimidin-4-yl)-5,8-diazaspiro[2.6]nonan-8-yl]methanone]
14 | 100 to 1000 nM | 100 to 1000 nM | 100 to 1000 nM | O=C(c1cncc(F)c1)N1CCCN(c2ncnc3[nH]ccc23)CC12CC2 [Example 214, (5-fluoro-3-pyridyl)-[5-(7H-pyrrolo[2,3-d]pyrimidin-4-yl)-5,9-diazaspiro[2.6]nonan-9-yl]methanone]
15 | > 1000 nM | < 100 nM | 100 to 1000 nM | O=C(c1ccccn1)N1CCCN(c2ncnc3[nH]ccc23)CC12CC2 [Example 189, 2-pyridyl-[5-(7H-pyrrolo[2,3-d]pyrimidin-4-yl)-5,9-diazaspiro[2.6]nonan-9-yl]methanone]
16 | 100 to 1000 nM | < 100 nM | 100 to 1000 nM | CC(C(=O)N1CCN(c2ncnc3[nH]ccc23)CC2(CC2)C1)c1ccccc1 (centres unmarked) [Example 275, 2-phenyl-1-[5-(7H-pyrrolo[2,3-d]pyrimidin-4-yl)-5,8-diazaspiro[2.6]nonan-8-yl]propan-1-one]
17 | 100 to 1000 nM | 100 to 1000 nM | 100 to 1000 nM | O=C(c1c[nH]nn1)N1CCCN(c2ncnc3[nH]ccc23)CC12CC2 [Example 205, [5-(7H-pyrrolo[2,3-d]pyrimidin-4-yl)-5,9-diazaspiro[2.6]nonan-9-yl]-(1H-triazol-4-yl)methanone]
18 | > 1000 nM | 100 to 1000 nM | > 1000 nM | c1ccc(CN2CCCN(c3ncnc4[nH]ccc34)CC23CC3)cc1 [Example 280, 4-(9-benzyl-5,9-diazaspiro[2.6]nonan-5-yl)-7H-pyrrolo[2,3-d]pyrimidine]
19 | 100 to 1000 nM | 100 to 1000 nM | 100 to 1000 nM | CN(CCC#N)C(=O)N1CCN(c2ncnc3[nH]ccc23)CC2(CC2)C1 [Example 220, N-(2-cyanoethyl)-N-methyl-5-(7H-pyrrolo[2,3-d]pyrimidin-4-yl)-5,8-diazaspiro[2.6]nonane-8-carboxamide]
20 | 100 to 1000 nM | < 100 nM | < 100 nM | O=C(c1ccno1)N1CCCN(c2ncnc3[nH]ccc23)CC12CC2 [Example 181, isoxazol-5-yl-[5-(7H-pyrrolo[2,3-d]pyrimidin-4-yl)-5,9-diazaspiro[2.6]nonan-9-yl]methanone]
21 | 100 to 1000 nM | < 100 nM | 100 to 1000 nM | N#CCN(CC#N)C(=O)N1CCN(c2ncnc3[nH]ccc23)CC2(CC2)C1 [Example 219, N,N-bis(cyanomethyl)-5-(7H-pyrrolo[2,3-d]pyrimidin-4-yl)-5,8-diazaspiro[2.6]nonane-8-carboxamide]
22 | > 1000 nM | 100 to 1000 nM | 100 to 1000 nM | O=C(c1cccc(O)n1)N1CCN(c2ncnc3[nH]ccc23)CC2(CC2)C1 [Example 163, (6-hydroxy-2-pyridyl)-[5-(7H-pyrrolo[2,3-d]pyrimidin-4-yl)-5,8-diazaspiro[2.6]nonan-8-yl]methanone]
23 | 100 to 1000 nM | < 100 nM | < 100 nM | N#CCc1ccc(CC(=O)N2CCN(c3ncnc4[nH]ccc34)CC3(CC3)C2)cc1 [Example 266, 2-[4-[2-oxo-2-[5-(7H-pyrrolo[2,3-d]pyrimidin-4-yl)-5,8-diazaspiro[2.6]nonan-8-yl]ethyl]phenyl]acetonitrile]
24 | 100 to 1000 nM | < 100 nM | 100 to 1000 nM | O=C(c1n[nH]c(Cl)n1)N1CCCN(c2ncnc3[nH]ccc23)CC12CC2 [Example 232, (5-chloro-1H-1,2,4-triazol-3-yl)-[5-(7H-pyrrolo[2,3-d]pyrimidin-4-yl)-5,9-diazaspiro[2.6]nonan-9-yl]methanone]
25 | > 1000 nM | 100 to 1000 nM | 100 to 1000 nM | Cc1cc(CC(=O)N2CCCN(c3ncnc4[nH]ccc34)CC23CC3)on1 [Example 217, 2-(3-methylisoxazol-5-yl)-1-[5-(7H-pyrrolo[2,3-d]pyrimidin-4-yl)-5,9-diazaspiro[2.6]nonan-9-yl]ethanone]
